According to ChEMBL document CHEMBL1201862, “PubChem BioAssay data set” (2004):
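Where inhibition never reached the appropriate level, the endpoint shown equals the highest concentration tested. Otherwise, values were interpolated linearly from a five-concentration, 48-hour dose response in 96-well plates. Abbreviation: GI50, concentration required for 50% inhibition of growth.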 Activity calls are given as the source filed them. Rule as the data show it: active = GI50 up to about 1.1 µM and inactive = higher.

Assays:
Assay in all cases: NCI anticancer screen, dose series, 48 h
[1] = test system: CCRF-CEM
[2] = test system: COLO 205
[3] = test system: DU-145
[4] = test system: SN12C
[5] = test system: U-251
[6] = test system: SNB-75
[7] = test system: NCI-H226
[8] = test system: LOX IMVI
[9] = test system: SK-MEL-5
[10] = test system: SK-MEL-28
[11] = test system: SR
[12] = test system: SF-268
[13] = test system: UO-31
[14] = test system: RXF 393
[15] = test system: SW-620
[16] = test system: MOLT-4
[17] = test system: BT-549
[18] = test system: NCI-H460
[19] = test system: HOP-92
[20] = test system: PC-3
[21] = test system: HCT-116
[22] = test system: 786-0
[23] = test system: NCI-H522
[24] = test system: RPMI-8226
[25] = test system: SK-MEL-2
[26] = test system: SF-295
[27] = test system: NCI-H23
[28] = test system: Malme-3M
[29] = test system: HL-60
[30] = test system: M14
[31] = test system: Hs-578T
[32] = test system: HCC 2998
[33] = test system: OVCAR-4
[34] = test system: SNB-19
[35] = test system: T47D
[36] = test system: MDA-MB-435
[37] = test system: OVCAR-8
[38] = test system: A498
[39] = test system: SF-539
[40] = test system: MDA-MB-231
[41] = test system: SK-OV-3
[42] = test system: MCF7
[43] = test system: EKVX
[44] = test system: MDA-N
[45] = test system: IGROV-1
[46] = test system: ACHN
[47] = test system: K562
[48] = test system: OVCAR-3
[49] = test system: NCI/ADR-RES
[50] = test system: A549
[51] = test system: HOP-62
[52] = test system: OVCAR-5
[53] = test system: HCT-15
[54] = test system: UACC-257
[55] = test system: CAKI-1
[56] = test system: TK-10
[57] = test system: KM12
[58] = test system: UACC-62
[59] = test system: HT-29

## Oc1cc(O)c2c(c1)O[C@H](c1cc(O)c(O)c(O)c1)[C@@H](O)C2 [GALLOCATECHIN]
[1]
  GI50: 19.5 µM (inactive)
[2]
  GI50: 19.3 µM (inactive)
[3]
  GI50: > 100 µM (inactive)
[4]
  GI50: 18.3 µM (inactive)
[5]
  GI50: 19.7 µM (inactive)
[6]
  GI50: 17.9 µM (inactive)
[7]
  GI50: 28.8 µM (inactive)
[8]
  GI50: 20.5 µM (inactive)
[9]
  GI50: 19.1 µM (inactive)
[10]
  GI50: 43.3 µM (inactive)
[11]
  GI50: 19.6 µM (inactive)
[12]
  GI50: 23.6 µM (inactive)
[13]
  GI50: 18.2 µM (inactive)
[14]
  GI50: 17 µM (inactive)
[15]
  GI50: 17.3 µM (inactive)
[16]
  GI50: > 10 µM (inactive)
[17]
  GI50: 23.6 µM (inactive)
[18]
  GI50: 19.2 µM (inactive)
[19]
  GI50: > 10 µM (inactive)
[20]
  GI50: 30.7 µM (inactive)
[21]
  GI50: 17.9 µM (inactive)
[22]
  GI50: 18 µM (inactive)
[23]
  GI50: 17.5 µM (inactive)
[24]
  GI50: 20.7 µM (inactive)
[25]
  GI50: 24.6 µM (inactive)
[26]
  GI50: 24.4 µM (inactive)
[27]
  GI50: 23.5 µM (inactive)
[28]
  GI50: > 100 µM (inactive)
[29]
  GI50: 22.2 µM (inactive)
[30]
  GI50: 25.1 µM (inactive)
[31]
  GI50: 46.6 µM (inactive)
[32]
  GI50: > 10 µM (inactive)
[33]
  GI50: 22.4 µM (inactive)
[34]
  GI50: > 100 µM (inactive)
[35]
  GI50: 28.9 µM (inactive)
[36]
  GI50: 18.5 µM (inactive)
[37]
  GI50: 16.2 µM (inactive)
[38]
  GI50: > 100 µM (inactive)
[39]
  GI50: 18 µM (inactive)
[40]
  GI50: 18.7 µM (inactive)
[41]
  GI50: 28.1 µM (inactive)
[42]
  GI50: 18.8 µM (inactive)
[43]
  GI50: 24.8 µM (inactive)
[44]
  GI50: 21.1 µM (inactive)
[45]
  GI50: 18.8 µM (inactive)
[46]
  GI50: 21.1 µM (inactive)
[47]
  GI50: 18 µM (inactive)
[48]
  GI50: 21.8 µM (inactive)
[49]
  GI50: 36.2 µM (inactive)
[50]
  GI50: 40.5 µM (inactive)
[51]
  GI50: 17.5 µM (inactive)
[52]
  GI50: 18.8 µM (inactive)
[53]
  GI50: 40 µM
[54]
  GI50: > 100 µM (inactive)
[55]
  GI50: 43.7 µM (inactive)

## CC(=O)OCC12C(OC(C)=O)C[C@@H](C)C3(CC(c4ccoc4)OC3=O)C1CCC(O)C21CO1 (stereo not given in full)
[2]
  GI50: > 100 µM (inactive)
[3]
  GI50: > 100 µM (inactive)
[4]
  GI50: > 100 µM (inactive)
[5]
  GI50: > 100 µM (inactive)
[6]
  GI50: > 100 µM (inactive)
[7]
  GI50: > 100 µM (inactive)
[8]
  GI50: > 100 µM (inactive)
[9]
  GI50: > 100 µM (inactive)
[10]
  GI50: > 100 µM (inactive)
[11]
  GI50: > 100 µM (inactive)
[12]
  GI50: > 100 µM (inactive)
[13]
  GI50: > 100 µM (inactive)
[14]
  GI50: > 100 µM (inactive)
[16]
  GI50: > 100 µM (inactive)
[17]
  GI50: > 100 µM (inactive)
[18]
  GI50: > 10 µM (inactive)
[19]
  GI50: > 100 µM (inactive)
[20]
  GI50: > 100 µM (inactive)
[21]
  GI50: > 100 µM (inactive)
[22]
  GI50: > 100 µM (inactive)
[23]
  GI50: > 100 µM (inactive)
[24]
  GI50: > 100 µM (inactive)
[25]
  GI50: > 100 µM (inactive)
[56]
  GI50: > 100 µM (inactive)
[26]
  GI50: > 100 µM (inactive)
[27]
  GI50: > 100 µM (inactive)
[28]
  GI50: > 100 µM (inactive)
[29]
  GI50: > 100 µM (inactive)
[30]
  GI50: > 100 µM (inactive)
[31]
  GI50: > 100 µM (inactive)
[32]
  GI50: > 100 µM (inactive)
[57]
  GI50: > 100 µM (inactive)
[33]
  GI50: > 100 µM (inactive)
[34]
  GI50: > 100 µM (inactive)
[35]
  GI50: 2.82 µM (inactive)
[36]
  GI50: > 100 µM (inactive)
[37]
  GI50: > 100 µM (inactive)
[38]
  GI50: > 100 µM (inactive)
[39]
  GI50: > 100 µM (inactive)
[40]
  GI50: > 100 µM (inactive)
[42]
  GI50: > 100 µM (inactive)
[44]
  GI50: > 100 µM (inactive)
[45]
  GI50: > 100 µM (inactive)
[46]
  GI50: > 100 µM (inactive)
[47]
  GI50: > 100 µM (inactive)
[58]
  GI50: > 100 µM (inactive)
[48]
  GI50: > 100 µM (inactive)
[49]
  GI50: > 100 µM (inactive)
[59]
  GI50: > 100 µM (inactive)
[50]
  GI50: > 100 µM (inactive)
[51]
  GI50: > 100 µM (inactive)
[52]
  GI50: > 100 µM (inactive)
[53]
  GI50: > 100 µM
[54]
  GI50: > 100 µM (inactive)
[55]
  GI50: > 100 µM (inactive)
